Measurements: patent US20150238466A1, “LIM KINASE INHIBITORS” (RAMOT AT TEL-AVIV UNIVERSITY LTD., priority 2012, published 2015)
Values joined by “and” are separate entries in the source; they are usually repeats but may differ in a detail not shown here. Identical values can stand only once.

Tests used:
[1] = tested on: NF1−/− MEFs; assay: Actin stress fibers, rhodamine-phalloidin staining of NF1−/− MEFs; assay type: cell-based, mouse
Experimental: MEFs were seeded on glass coverslips in 6-well plates at the densities of 2.5×10^4 cells per well. […] Cells were further incubated for 24 hours and were then fixed, permeabilized, and washed. Rhodamine-labeled phalloidin was added for 30 minutes and the slides were then washed, mounted, and imaged. F-actin was visualized and then photographed under an LSM510 confocal microscope (×63 objective) fitted with rhodamine filters. Statistical analysis was performed by counting 100 cells from each slide, with or without stress fibers, under an Olympus fluorescence microscope.

[2] = tested on: NF1−/− MEFs; assay: Growth (cell number) of NF1−/− MEFs, direct counting after 5 days; assay type: cell-based, mouse; settings: for inhibition at 5 µM / inhibition at 25 µM: Mus musculus
Experimental: Cells were directly counted and typical inhibition curves are shown (means±SEM, n=9; **P<0.01, ***P<0.001).
The cells were plated in 24-well plates at a density of 5×10^3 cells per well.

[3] = tested on: LIMK; assay: Western blot of p-cofilin in NF1−/− MEFs; assay type: cell-based, mouse
Experimental: FIG. 3A-B presents an immunoblot and graphical presentation of immunoblots. […] Normalization was performed using beta-tubulin. Average inhibition was calculated as a percentage of control (mean±SD, n=3,*P<0.05; **P<0.01 compared to control (Student's t-test)).
NF1−/− MEFs were plated at a density of lx 10^5 or 5×10^5 cells in 6-well plates or 10-cm dishes, respectively, and were allowed to grow overnight in a medium containing 10% FCS. […] The cells were then lysed with solubilization buffer (50 mMTris-HCl at a pH of 7.6, 20 mM MgCl2, 200 mM NaCl, 0.5% NP40, 1 mM Dithiothreitol, and protease inhibitors), and the lysate (50 μg) was subjected to SDS-PAGE and then immunoblotted with one of the following antibodies: anti-p-cofilin (1:1000), anti-cofilin (1:1000), anti-β-tubulin (1:500). The immunoblots were then exposed to peroxidase-goat anti-rabbit IgG (1:2500), and protein bands were visualized by enhanced chemiluminescence and quantified by densitometry (EZ-Qant). Rabbit anti-cofilin and p-cofilin (Ser3) were from Cell Signaling Technolgy (Beverly, Mass.); mouse anti-β-tubulin antibody was from Sigma-Aldrich; peroxidase-goat anti-mouse IgG and peroxidase-goat anti-rabbit IgG were from Jackson ImmunoResearch Laboratories (West Grove, Pa.).
It has been previously shown that the levels of phosphorylated cofilin (p-cofilin) are high in NF1^−/− Mouse Embryonic Fibroblasts (MEFs). Thus, these cells were used herein to examine the impact of compound 1 on phosphorylation of cofilin.
The cells were lysed and subjected to immunoblotting with anti-p-cofilin, anti-cofilin, and anti-β-tubulin (as loading control) antibodies. […] These findings, taken together, support the predicted LIMK model as well as the predicted LIMK inhibitor.

[4] = tested on: Panc-1 tumor; assay: Panc-1 human pancreatic tumor growth in nude mice; assay type: in vivo, mouse; settings: for average tumor size: control group 745
Excerpt: FIG. 11A—Panc-1 cells were implanted s.c. in the right flank of athymic nude mice. After 7 days, the mice were separated randomly into one vehicle-treated control group and two T-56-LIMKi groups (n=8). […] Tumor volumes (means±S.E.M, * p-value<0.05) during the experiment period are shown. FIG. 11B—The mice were weighted at indicated time point. Presented are average weights of each group (grams±stdev).
Nude CD1-Nu mice (6 weeks old) were housed in barrier facilities on a 12-h light/dark cycle. Food and water were supplied ad libitum. On day zero, 5×10^6 Panc-1 cells in 0.1 ml of PBS were implanted s.c. just above the right femoral joint When tumor volumes reached values of 0.06-0.07 cm3 (day 0 of compound-1 treatment), the mice were randomly separated into three groups. Control mice received vehicle; compound-1-treated mice received 30 or 60 mg/kg T56-LIMKi (oral administration of 0.1 ml with 0.5% CMC daily). Tumor volume was calculated as (length×width)×[(length+width)÷2].
The effects of compound ion human pancreatic tumor growth in nude mice was examined, i.e., on cell transformation in an in vivo model. Mice received 5×10^6 cells subcutaneously (s.c.) in the right flank. […] By day 31, 4 out of 8 tumors in the 60 mg/kg treated group disappeared completely.

[5] = In-vivo toxicity, single oral dose in nude mice; settings: single oral dose 20-100 mg/kg in 0.5% CMC, followed for 2 weeks
Excerpt: The mice were weighted and followed for 14 days after the administration. Average weight of treated mice is presented. (n=2).
The mice were followed for 2 weeks to measure toxic effects.

[6] = tested on: NF1−/− MEFs; assay: Anchorage-independent growth in soft agar; assay type: cell-based, mouse; settings: 25 and 50 μM, 14 days
Experimental: FIG. 7B is a graph showing a statistical analysis of the anchorage-independent growth experiment. Columns, mean (n=5); bars, SD; *P<0.001.
Noble agar 2% (Difco, Detroit, Mich.) was mixed with DMEM×2 medium, containing 10% FCS, 4 mM L-glutamine, 200 units/mL penicillin, and 0.2 mg/mL streptomycin. The mixture (50 μL) was poured into 96-well plates to provide the agar base at a final agar concentration of 1%. […] The cells were incubated for 14 days and then stained for 4 hours with 1 mg/mL 344,5-dimethylthiazol-2-yl)-2 5-diphenyltetrazolium bromide (MTT; Sigma-Aldrich, St. Louis, Mo.), which stains active mitochondria in living cells, and the colonies were imaged. Colonies larger than 0.16 mm^2 (mean±SD, n=5) were counted using Image-Pro Plus software (Media Cybernetics, Carlsbad, Calif.). The average percentage of colonies in each group (means±SD, n=5) was calculated by dividing the number of colonies of a particular treatment and specific group size by the number of colonies of the same size in the corresponding untreated control group.

[7] = tested on: U87-glioblastoma; assay: Growth inhibition of U87 cells; assay type: cell-based; settings: Homo sapiens, U-87 MG, 120 h; U87, 5 days; read-out: IC50, reduction of cell number
Excerpt: (§1) Cells were directly counted and typical inhibition curves are shown.

[8] = tested on: wt MEFs; assay: Scratch-induced (wound-healing) migration assay, wt MEFs; assay type: cell-based, mouse; settings: compound 1 at 50 μM
Experimental: (§2) FIG. 6 is a graph showing gap width in NF1−/− MEFs cells examined (mean±SD, n=9), expressed as a percentage of the gap at the time of scratching.
(§3) Scratch-induced migration assay was performed as described in Goldberg et al.. Briefly, NF1-knockout and wt MEFs were seeded on collagen-covered 35-mm plates at a cell density of 1.5×10^5 per plate. […] Three areas were scratched in each plate, creating three gaps of similar widths. The media and the inhibitors were then replenished. Immediately thereafter, and at the time points indicated in the Examples section, phase-contrast images of the plates were obtained with a CCD camera connected to an Olympus fluorescence microscope (×10 objective). The region imaged was marked at time “zero” in order to enable photographing the same area at the different time points, and so that a specific population of migrating cells may be examined. The widths of the gaps treated with the inhibitor were measured at different time points, using the Image-Pro Plus software. […] Statistical analysis of the results was performed, of either the mean gap width (in arbitrary units) of compound 1-treated cells relative to the control at different time points (means±SD, n=9) or the percentage of migration, calculated as the width of the gap still open at the final time point, expressed as a percentage of the gap size at zero time for each treatment (means±SD, n=9). […]

[9] = tested on: NF1−/− MEFs; assay: Scratch-induced (wound-healing) migration assay, NF1−/− MEFs; assay type: cell-based, mouse; settings: within 3 hours, compound 1 at 50 μM; untreated cells 50%
Experimental: as §2, §3

[10] = tested on: Panc-1-pancreatic cancer tumor cell line; assay: Growth inhibition of Panc-1 cells; assay type: cell-based; settings: Homo sapiens, 120 h; Panc-1, 5 days; read-out: IC50, reduction of cell number
Excerpt: as §1

[11] = tested on: ST-88-swanoma; assay: Growth inhibition of ST-88 cells; assay type: cell-based; settings: 120 h; ST-88, 5 days; read-out: IC50, reduction of cell number
Excerpt: as §1

With `CC(C)=CCC/C(C)=C/CC/C(C)=C/CSc1ccccc1C(=O)O` [FTS, S-trans, trans-farnesyl thiosalicyclic acid, reference compound] the “decrease in stress fiber formation” value ([1]; FTS alone) was 20%±5.6% and the growth inhibition ([2]; FTS alone (zero compound 1)) was 33%±1.6%.

In the case of `CC(C)C(=O)Nc1ncc(-c2cc(C(F)F)nn2-c2c(Cl)cccc2Cl)s1` [BMS-5, N-{5-(2-(2,6-dichloro-phenyl)-5-difluoromethyl-2H-pyrazol-3-yl)-thiazol-2-yl}-isobutyramide, reference compound], the “reduction of p-cofilin level, potency compared with compound 1” value ([3]; similar experiment, 2 hours, NF1−/− MEFs) is reported as “more potent than compound 1”.

For `Cc1cc(C(=O)Nc2cccc(C(=O)Nc3cccc(C(F)(F)F)c3)c2)on1` [compound 1], the “significance of the reduction of tumor volume” value ([4]; 60 mg/kg daily oral) was “significant from day 18”, the mouse weight ([4]; 30 or 60 mg/kg daily oral) was “not affected” and the signs of cytotoxicity ([4]; 30 or 60 mg/kg daily oral) was “no signs of cytotoxicity”. The average tumor size ([4]; Day 22, 30 mg/kg daily oral) was 488 mm^3, the average tumor size ([4]; Day 22, 60 mg/kg daily oral) was 268 mm^3 and the “tumors that disappeared completely” value ([4]; by day 31, 60 mg/kg daily oral) was 4 out of 8. For the same compound, the “decrease in the number of cells exhibiting stress fibers” value ([1]; compound 1 at 50 μM) was 26%±7.7% and 30%, the body weight [5] was “no weight lost was detected” and the “toxic effects (appearance of mice)” value [5] was “looked normal at all doses”. The “toxic effects (appearance of mice)” value ([5]; listed as T56-LIMKi) was “not toxic”, the inhibition at 5 µM ([2]; compound 1 at 5 μM in the absence of FTS) was 13% and the inhibition at 5 µM ([2]; compound 1 at 5 μM in the presence of FTS) was 60%. For the same compound, the inhibition at 25 µM ([2]; compound 1 at 25 μM in the absence of FTS) was 51%, the inhibition at 25 µM ([2]; compound 1 at 25 μM in the presence of FTS) was 85.5% and the “reduction in cell proliferation” value ([2]; compound 1 at 50 μM) was 70%. For the same compound, the “colony formation in soft agar” value [6] was “inhibited in a dose-dependent manner”, the IC50 [7] was roughly 25 µM and the “mobility of wt MEFs” value [8] was “not affected”. The “inhibition of cofilin phosphorylation by LIMK” value ([3]; 50 μM) was “about 50%”, the “amounts of total cofilin” value ([3]; 2 hours, NF1−/− MEFs) was “did not affect” and the level of p-cofilin ([3]; compound 1 at 10-50 μM, 2 hours, serum-starved NF1−/− MEFs) was “reduced”. It also gave a gap closed [9] of 10%, an IC50 [10] of roughly 25 µM and an IC50 [11] of roughly 25 µM.
